Measured values reported in article PMC9600068, “New Approach Methods for Hazard Identification: A Case Study with Azole Fungicides Affecting Molecular Targets Associated with the Adverse Outcome Pathway for Cholestasis” (Cells, 2022).

Target: T1, bile salt export pump (BSEP) (Homo sapiens, UniProt O95342)
T1 construct: gene ABCB11
Experiment: inhibition of taurocholate transport in membrane preparations from HEK293 cells overexpressing human BSEP
Assay type: biochemical

T1 sequence (O95342 whole entry): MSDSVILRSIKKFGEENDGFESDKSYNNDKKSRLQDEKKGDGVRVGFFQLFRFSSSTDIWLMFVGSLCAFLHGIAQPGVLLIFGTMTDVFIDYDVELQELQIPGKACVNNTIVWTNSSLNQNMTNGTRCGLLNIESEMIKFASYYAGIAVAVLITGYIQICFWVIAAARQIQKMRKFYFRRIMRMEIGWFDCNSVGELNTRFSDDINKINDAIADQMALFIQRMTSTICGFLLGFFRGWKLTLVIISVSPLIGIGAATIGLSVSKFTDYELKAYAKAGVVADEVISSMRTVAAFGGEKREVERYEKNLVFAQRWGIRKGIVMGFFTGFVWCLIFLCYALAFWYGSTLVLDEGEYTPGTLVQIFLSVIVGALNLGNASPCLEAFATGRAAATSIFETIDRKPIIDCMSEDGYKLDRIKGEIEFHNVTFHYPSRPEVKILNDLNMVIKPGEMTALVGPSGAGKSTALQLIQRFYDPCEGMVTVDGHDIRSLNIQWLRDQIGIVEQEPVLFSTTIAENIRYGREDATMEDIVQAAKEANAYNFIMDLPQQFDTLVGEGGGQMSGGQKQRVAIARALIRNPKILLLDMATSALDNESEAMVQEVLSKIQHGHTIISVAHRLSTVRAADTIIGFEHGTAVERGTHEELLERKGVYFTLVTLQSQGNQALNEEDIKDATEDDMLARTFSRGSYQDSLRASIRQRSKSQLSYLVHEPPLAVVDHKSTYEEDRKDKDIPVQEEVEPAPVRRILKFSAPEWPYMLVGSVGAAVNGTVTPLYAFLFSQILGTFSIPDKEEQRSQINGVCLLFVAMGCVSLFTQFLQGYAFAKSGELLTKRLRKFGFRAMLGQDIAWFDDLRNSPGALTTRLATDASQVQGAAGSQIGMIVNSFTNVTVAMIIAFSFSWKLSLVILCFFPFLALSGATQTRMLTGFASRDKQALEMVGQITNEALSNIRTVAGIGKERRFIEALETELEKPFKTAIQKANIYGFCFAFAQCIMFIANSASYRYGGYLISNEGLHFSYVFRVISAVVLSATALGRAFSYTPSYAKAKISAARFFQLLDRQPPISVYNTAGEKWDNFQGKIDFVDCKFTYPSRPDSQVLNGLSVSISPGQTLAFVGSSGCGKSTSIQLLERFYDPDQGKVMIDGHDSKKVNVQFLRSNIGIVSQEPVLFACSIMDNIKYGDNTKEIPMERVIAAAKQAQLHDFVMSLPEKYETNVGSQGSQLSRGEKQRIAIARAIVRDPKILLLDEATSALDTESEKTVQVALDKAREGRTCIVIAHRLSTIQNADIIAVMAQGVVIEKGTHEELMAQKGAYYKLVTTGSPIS

| Compound | IC50 |
| --- | --- |
| CC(C)(C)C(O)(CCc1ccc(Cl)cc1)Cn1cncn1 (centres unmarked) [Te, tebuconazole] | 38 µM |
| CCCC1COC(Cn2cncn2)(c2ccc(Cl)cc2Cl)O1 (centres unmarked) [Pi, propiconazole] | 78.6 µM |
